From patent US20210379066A1, “COMBINATIONS OF POSITIVE ALLOSTERIC MODULATORS AND NICOTINIC ACETYLCHOLINE RECEPTOR AGONISTS FOR TREATING OCULAR CONDITIONS” (Oyster Point Pharma, Inc., priority 2018, published 2021)
Entries after “also recorded” stand apart in the source; their conditions may differ. Where two headings read alike, the source gives them in different places.

What was measured:
Assay type in all cases: cell-based
[1] = target: T1, human alpha3beta4 nAChRs (Homo sapiens, UniProt P30926+P32297); experiment: Antagonistic activity / desensitization, cumulative exposure in the low concentration range (Example 2); details: concentrations up to 300 nM
T1 construct: expressed in transfected cells; host or cells: Xenopus laevis oocytes (cDNA injection)
T1 sequence (P32297 32-505): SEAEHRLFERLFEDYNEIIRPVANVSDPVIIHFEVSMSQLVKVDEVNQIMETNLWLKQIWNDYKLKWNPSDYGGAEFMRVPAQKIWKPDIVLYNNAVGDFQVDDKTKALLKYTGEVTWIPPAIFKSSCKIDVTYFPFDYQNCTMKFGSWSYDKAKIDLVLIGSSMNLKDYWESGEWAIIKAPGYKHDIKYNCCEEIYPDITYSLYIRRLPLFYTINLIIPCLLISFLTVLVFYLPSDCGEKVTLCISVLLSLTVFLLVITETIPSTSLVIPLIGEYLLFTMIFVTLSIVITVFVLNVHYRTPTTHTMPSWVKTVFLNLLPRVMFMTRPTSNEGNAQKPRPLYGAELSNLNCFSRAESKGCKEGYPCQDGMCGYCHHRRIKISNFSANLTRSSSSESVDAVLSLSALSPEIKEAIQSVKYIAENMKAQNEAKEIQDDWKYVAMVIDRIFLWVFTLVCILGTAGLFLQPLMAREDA
T1 sequence (P30926 22-498): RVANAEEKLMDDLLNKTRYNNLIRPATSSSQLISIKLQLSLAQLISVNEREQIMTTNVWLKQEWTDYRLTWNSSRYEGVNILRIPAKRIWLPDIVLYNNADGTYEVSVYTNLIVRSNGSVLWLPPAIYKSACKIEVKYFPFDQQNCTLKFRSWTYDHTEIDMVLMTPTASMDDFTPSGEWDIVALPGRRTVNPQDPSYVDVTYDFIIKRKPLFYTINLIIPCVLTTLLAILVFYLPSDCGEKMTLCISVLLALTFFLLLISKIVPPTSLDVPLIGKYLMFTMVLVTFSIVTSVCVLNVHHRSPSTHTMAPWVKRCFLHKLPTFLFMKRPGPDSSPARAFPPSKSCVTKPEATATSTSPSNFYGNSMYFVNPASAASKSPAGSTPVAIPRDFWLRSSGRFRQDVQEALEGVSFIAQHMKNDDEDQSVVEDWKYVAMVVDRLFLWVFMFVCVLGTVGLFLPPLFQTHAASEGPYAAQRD

[2] = target: T2, human alpha4beta2 nAChRs (Homo sapiens, UniProt P17787+P43681); experiment: as above; details: nanomolar range, up to 300 nM; dihydrate
T2 construct: expressed in transfected cells; host or cells: Xenopus laevis oocytes (cDNA injection)
T2 sequence (P43681 29-627 limits assumed): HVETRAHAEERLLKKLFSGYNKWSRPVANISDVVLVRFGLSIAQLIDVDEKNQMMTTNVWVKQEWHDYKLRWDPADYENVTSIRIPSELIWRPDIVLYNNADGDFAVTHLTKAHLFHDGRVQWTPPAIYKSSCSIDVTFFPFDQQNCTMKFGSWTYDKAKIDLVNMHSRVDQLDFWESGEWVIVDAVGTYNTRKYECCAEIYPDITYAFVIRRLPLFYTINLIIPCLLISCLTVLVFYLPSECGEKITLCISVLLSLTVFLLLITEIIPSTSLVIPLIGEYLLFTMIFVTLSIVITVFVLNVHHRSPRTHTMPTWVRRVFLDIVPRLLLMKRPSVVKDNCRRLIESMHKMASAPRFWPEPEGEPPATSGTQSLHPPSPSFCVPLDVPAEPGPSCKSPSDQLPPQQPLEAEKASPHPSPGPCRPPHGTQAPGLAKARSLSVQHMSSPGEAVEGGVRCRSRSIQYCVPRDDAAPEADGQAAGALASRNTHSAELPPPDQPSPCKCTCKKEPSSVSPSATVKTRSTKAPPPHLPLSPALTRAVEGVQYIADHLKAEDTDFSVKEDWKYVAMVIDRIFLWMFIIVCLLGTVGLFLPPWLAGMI
T2 sequence (P17787 26-502): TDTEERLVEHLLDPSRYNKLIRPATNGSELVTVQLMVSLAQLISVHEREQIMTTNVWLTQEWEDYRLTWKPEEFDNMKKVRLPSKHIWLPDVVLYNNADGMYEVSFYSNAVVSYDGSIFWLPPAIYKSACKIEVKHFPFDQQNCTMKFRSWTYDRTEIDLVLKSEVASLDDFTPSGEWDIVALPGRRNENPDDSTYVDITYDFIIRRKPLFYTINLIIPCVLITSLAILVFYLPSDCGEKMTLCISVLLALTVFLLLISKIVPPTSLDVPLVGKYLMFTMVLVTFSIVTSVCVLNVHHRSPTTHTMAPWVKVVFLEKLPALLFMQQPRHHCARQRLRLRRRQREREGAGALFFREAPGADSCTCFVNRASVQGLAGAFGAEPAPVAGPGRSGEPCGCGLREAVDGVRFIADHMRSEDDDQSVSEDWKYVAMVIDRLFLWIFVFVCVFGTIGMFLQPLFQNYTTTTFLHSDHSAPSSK

[3] = target: T3, human nAChR alpha3beta4 (Homo sapiens, UniProt P30926+P32297); experiment: Agonist activity, two-electrode voltage clamp in Xenopus oocytes (Examples 2 and 5); details: for agonist character: versus ACh response
T3 construct: expressed in transfected cells; host or cells: Xenopus laevis oocytes (cDNA injection)
T3 sequence (P32297 32-505): as the sequence (P32297 32-505) above
T3 sequence (P30926 22-498): as the sequence (P30926 22-498) above
Description: (§1) All experiments were carried out at human nAChRs expressed in Xenopus oocytes using the method of cDNA expression. Xenopus oocytes were prepared and injected using standard procedures.
(§2) Briefly, ovaries were harvested from Xenopus Laevis females that have been deeply anesthetized by cooling at 4° C. and Tricaine methanesulfonate (MS-222 at a concentration of 150 mg/L) in sodium bicarbonate (300 mg/L). Once anesthetized the animal was decapitated and pithed following the rules of animal rights from the Geneva canton. A small piece of ovary was isolated for immediate preparation while the remaining part was placed at 4° C. in a sterile Barth solution containing in mM NaCl 88, KCl 1, NaHCO32.4, HEPES 10, MgSO4.7H2O 0.82, Ca(NO3)2.4H2O 0.33, CaCl2.6H2O 0.41, at pH 7.4, and supplemented with 20 μg/ml of kanamycin, 100 unit/ml penicillin. All recordings were performed at 18° C. and cells superfused with OR2 medium containing in mM: NaCl 88, KCl 2.5, HEPES 5, CaCl2.2H2O 1.8, MgCl2.6H2O 1, pH 7.4.
(§3) Currents evoked by ACh or other agonists were recorded using an automated process equipped with standard two-electrode voltage-clamp configuration (TEVC). Data were captured and analyzed using a HiQScreen proprietary data acquisition and analysis software running under Matlab (Mathworks Inc.).
(§4) See Example 1. […] The test concentration of acetylcholine chloride was 1280 micromolar.
(§5) Injections of cDNAs encoding for the human alpha3beta4, alpha3alpha5beta4, alpha4beta2, and alpha7 were performed in at least 95 oocytes were performed using a proprietary automated injection and receptor expression examined at least two days later. Oocytes were poked with two electrodes and their membrane potential maintained, unless indicated, at −80 mV throughout the experiment.
(§6) A protocol to determine agonistic activity in the oocytes expressing the nAChRs was developed. The cells were exposed to a series of increasing concentrations of a compound agonist for 10 seconds each at two minute intervals. The current evoked from exposure to the agonist at each concentration was recorded. For oocytes expressing alpha7 nAChRs, exposure to the agonist was reduced to 5 seconds. This process was repeated for each agonist tested against each type of nAChR expressing cell.
(§7) To evaluate the agonistic properties of compound 1 hemi-galactarate dihydrate a protocol of brief exposures to a series of growing concentrations of compound 1 hemi-galactarate dihydrate was used.
(§8) Agonist Preparation: See Example 1. […] The test concentration of acetylcholine chloride was 1280 micromolar.
as §5, with “Experimental Procedures: Injections” for “Injections”, “alpha4beta2, alpha4alpha6beta2,” for “alpha4beta2,”, “oocytes” for “oocytes were performed”, “injection device. Cellular” for “injection and”, “expression was” for “expression”
as §6, with “developed. Oocytes expressing a nAChR subtype were exposed to a brief test pulse of acetylcholine (1280 micromolar) while the holding current and response was evaluated. Cells displaying robust currents were washed for 90 seconds.” for “developed.”, “were then” for “were”, “nAChR” for “compound”, “intervals. The nAChR agonist test concentrations were 0.1, 0.3, 1, 3, 10, 30, 100, 300 (micromolar).” for “intervals.”

[4] = target: T4, human nAChR alpha3alpha5beta4 (Homo sapiens, UniProt P30532+P30926+P32297); experiment: as above; details: for EC50: Example 2; for agonist character: versus ACh response
T4 construct: expressed in transfected cells; host or cells: Xenopus laevis oocytes (cDNA injection)
T4 sequence (P32297 32-505): as the sequence (P32297 32-505) above
T4 sequence (P30532 23-468): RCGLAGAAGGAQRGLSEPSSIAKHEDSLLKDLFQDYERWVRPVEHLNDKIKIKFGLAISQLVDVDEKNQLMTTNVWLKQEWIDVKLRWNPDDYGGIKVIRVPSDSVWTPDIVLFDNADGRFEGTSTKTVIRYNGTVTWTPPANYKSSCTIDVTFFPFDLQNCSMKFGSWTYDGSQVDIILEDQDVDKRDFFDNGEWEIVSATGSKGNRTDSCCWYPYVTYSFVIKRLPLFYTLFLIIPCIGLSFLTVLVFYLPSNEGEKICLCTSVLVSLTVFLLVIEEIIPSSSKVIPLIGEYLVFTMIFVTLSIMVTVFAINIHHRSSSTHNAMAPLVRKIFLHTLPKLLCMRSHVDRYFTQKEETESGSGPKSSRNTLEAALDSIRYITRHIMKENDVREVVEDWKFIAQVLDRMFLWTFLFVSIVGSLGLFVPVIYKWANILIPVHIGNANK
T4 sequence (P30926 22-498): as the sequence (P30926 22-498) above
Description: as §1, §2, §3, §4, §5, §6, §7, §8
as §5, with “Experimental Procedures: Injections” for “Injections”, “alpha4beta2, alpha4alpha6beta2,” for “alpha4beta2,”, “oocytes” for “oocytes were performed”, “injection device. Cellular” for “injection and”, “expression was” for “expression”
as §6, with “developed. Oocytes expressing a nAChR subtype were exposed to a brief test pulse of acetylcholine (1280 micromolar) while the holding current and response was evaluated. Cells displaying robust currents were washed for 90 seconds.” for “developed.”, “were then” for “were”, “nAChR” for “compound”, “intervals. The nAChR agonist test concentrations were 0.1, 0.3, 1, 3, 10, 30, 100, 300 (micromolar).” for “intervals.”

[5] = target: T5, human nAChR alpha7 (Homo sapiens, UniProt P36544); experiment: as above; details: for agonist character: versus ACh response
T5 construct: expressed in transfected cells; host or cells: Xenopus laevis oocytes (cDNA injection)
T5 sequence (P36544 23-502): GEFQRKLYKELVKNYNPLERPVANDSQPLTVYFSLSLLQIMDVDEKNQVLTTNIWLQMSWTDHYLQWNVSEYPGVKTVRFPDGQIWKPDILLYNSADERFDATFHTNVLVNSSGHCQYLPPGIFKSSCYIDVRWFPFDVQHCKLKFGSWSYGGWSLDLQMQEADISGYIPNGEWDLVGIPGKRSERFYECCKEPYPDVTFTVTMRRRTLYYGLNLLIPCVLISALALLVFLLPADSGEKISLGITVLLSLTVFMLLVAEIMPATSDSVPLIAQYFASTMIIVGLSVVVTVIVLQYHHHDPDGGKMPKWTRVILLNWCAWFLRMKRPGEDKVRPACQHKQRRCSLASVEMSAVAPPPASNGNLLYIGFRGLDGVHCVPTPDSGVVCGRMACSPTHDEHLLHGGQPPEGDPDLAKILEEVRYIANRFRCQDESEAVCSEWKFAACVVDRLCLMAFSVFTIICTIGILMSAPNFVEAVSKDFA
Description: as §1, §2, §3, §4, §5, §6, §7, §8
as §5, with “Experimental Procedures: Injections” for “Injections”, “alpha4beta2, alpha4alpha6beta2,” for “alpha4beta2,”, “oocytes” for “oocytes were performed”, “injection device. Cellular” for “injection and”, “expression was” for “expression”
as §6, with “developed. Oocytes expressing a nAChR subtype were exposed to a brief test pulse of acetylcholine (1280 micromolar) while the holding current and response was evaluated. Cells displaying robust currents were washed for 90 seconds.” for “developed.”, “were then” for “were”, “nAChR” for “compound”, “intervals. The nAChR agonist test concentrations were 0.1, 0.3, 1, 3, 10, 30, 100, 300 (micromolar).” for “intervals.”

[6] = target: T6, human nAChR alpha4beta2 (Homo sapiens, UniProt P17787+P43681); experiment: as above; details: for EC50: Example 2; for effect on the subsequent ACh-evoked current: after exposure to the agonist concentration series; for agonist character: versus ACh response
T6 construct: expressed in transfected cells; host or cells: Xenopus laevis oocytes (cDNA injection)
T6 sequence (P43681 29-627 limits assumed): as the sequence (P43681 29-627 limits assumed) above
T6 sequence (P17787 26-502): as the sequence (P17787 26-502) above
Description: as §1, §2, §3, §4, §5, §6, §7, §8
as §5, with “Experimental Procedures: Injections” for “Injections”, “alpha4beta2, alpha4alpha6beta2,” for “alpha4beta2,”, “oocytes” for “oocytes were performed”, “injection device. Cellular” for “injection and”, “expression was” for “expression”
as §6, with “developed. Oocytes expressing a nAChR subtype were exposed to a brief test pulse of acetylcholine (1280 micromolar) while the holding current and response was evaluated. Cells displaying robust currents were washed for 90 seconds.” for “developed.”, “were then” for “were”, “nAChR” for “compound”, “intervals. The nAChR agonist test concentrations were 0.1, 0.3, 1, 3, 10, 30, 100, 300 (micromolar).” for “intervals.”

[7] = target: T7, human alpha3alpha5beta4 nAChRs (Homo sapiens, UniProt P30532+P30926+P32297); experiment: Antagonistic activity / desensitization, cumulative exposure in the low concentration range (Example 2); details: nanomolar range, up to 300 nM; dihydrate
T7 construct: expressed in transfected cells; host or cells: Xenopus laevis oocytes (cDNA injection)
T7 sequence (P32297 32-505): as the sequence (P32297 32-505) above
T7 sequence (P30532 23-468): as the sequence (P30532 23-468) above
T7 sequence (P30926 22-498): as the sequence (P30926 22-498) above

[8] = target: T8, human alpha7 nAChRs (Homo sapiens, UniProt P36544); experiment: as above; details: concentrations up to 300 nM; dihydrate
T8 construct: expressed in transfected cells; host or cells: Xenopus laevis oocytes (cDNA injection)
T8 sequence (P36544 23-502): as the sequence (P36544 23-502) above

[9] = target: T2, human alpha4beta2 nAChRs; experiment: Desensitization by sustained (1 hour) agonist exposure and recovery, without and with PAM, Xenopus oocytes (Example 1); details: no PAM; for desensitization / inhibition of the response by sustained agonist exposure: 1 hour exposure, 1 mM compound 1 hemi-galactarate dihydrate or 300 μM varenicline tartrate; for recovery of the response after wash: after 1 hour agonist exposure, 3 hours wash
[10] = target: T2, human alpha4beta2 nAChRs; experiment: Sustained exposure to 300 μM varenicline tartrate and its recovery (Example 2); details: 36 minutes wash
[11] = target: T1, human alpha3beta4 nAChRs; experiment: as above
[12] = listed as Compound 1 hemi-galactarate dihydrate, dihydrate

`C(=C\[C@H]1CCNC1)/c1cncnc1` [compound 1 hemi-galactarate dihydrate, (R)-5-((E)-2-pyrrolidin-3-ylvinyl)pyrimidine hemigalactarate dihydrate] was tested, and the “inhibition of the ACh-evoked current by sustained exposure” value (from here on “inhibition of the ACh-evoked current”) ([1]; dihydrate) was “insensitive; also recorded: no significant inhibition”, the “inhibition of the ACh-evoked current” value [2] was “marked inhibition; also recorded: inhibits in a concentration-dependent manner” and the “percent of the maximal ACh-evoked currents” value ([3]; ACh 1280 micromolar) was “about 94%”. The EC50 ([3]; read-out: EC50) was 42.1 ± 5.36 µM, the agonist character [3, 12] was “almost as a full agonist” and the “percent of the maximal ACh-evoked currents” value ([4]; ACh 1280 micromolar) was “about 94%”. For the same compound, the EC50 ([4]; read-out: EC50) was 32.1 ± 2.16 µM, the agonist character [4, 12] was “almost as a full agonist” and the EC50 ([5]; Example 2, value for compound 1 salt only an estimation) was 1260 ± 500 µM. For the same compound, the “percent of the maximal ACh-evoked current” value ([5]; at 300 μM (300 micromolar) agonist, dihydrate) was 24%, the agonist character ([5]; dihydrate) was “poor agonist” and the agonist character [5, 12] was “more potent agonist than ACh”. The “evoked currents larger than the maximal ACh responses” value [6] was “about 2 fold”, the EC50 ([6]; read-out: EC50) was 48.8 ± 17.4 µM and the “effect on the subsequent ACh-evoked current” value ([6]; dihydrate) was “enhanced”. The agonist character [6, 12] was “more potent agonist than ACh”, the “inhibition of the ACh-evoked current” value [7] was “marked inhibition; also recorded: inhibits in a concentration-dependent manner” and the “inhibition of the ACh-evoked current” value [8] was “insensitive; also recorded: no significant inhibition”. For the same compound, the “desensitization / inhibition of the response by sustained agonist exposure” value ([9]; dihydrate) was “no long-lasting desensitization; also recorded: only a modest inhibition; also recorded: does not cause a long-lasting inhibition; also recorded: no long-lasting inhibition”, the “recovery of the response after wash” value [9] was “almost full recovery” and the “response after 18 hours recovery” value ([9]; after 1 hour exposure to 1 mM agonist) was “significant increase of the response”.
“varenicline tartrate [reference compound]” was tested, and the recovery from desensitization [10] was “absence of recovery; also recorded: cannot be recovered even after 36 minutes wash”, the “inhibition of the ACh-evoked current” value [1] was “very modest effect; also recorded: no significant inhibition” and the EC50 [3] was “low micromolar range”. The agonist character [3] was “partial agonist”, the EC50 [4] was “low micromolar range” and the agonist character [4] was “partial agonist”. The EC50 [6] was “low micromolar range”, the “effect on the subsequent ACh-evoked current” value [6] was “major inhibition” and the agonist character [6] was “partial agonist”. For the same compound, the agonist character ([6]; listed as Varenicline tartrate) was “very poor agonist”, the “desensitization / inhibition of the response by sustained agonist exposure” value [9] was “profound inhibition; also recorded: major desensitization; also recorded: sustained inhibition; also recorded: major inhibition” and the “recovery of the response after wash” value [9] was “could not be removed even after a three-hour wash period; also recorded: no significant recovery; also recorded: absence of recovery”. For the same compound, the recovery from desensitization ([11]; 300 μM, 36 minutes wash) was “absence of recovery; also recorded: cannot be recovered even after 36 minutes wash” and the “response evoked by 300 μM agonist” value ([11]; applied during three minutes) was “larger current amplitude; also recorded: rather large response”.
